Assay results published in US20230287044A1, “NOVEL ANTIBACTERIAL PEPTIDE AND USE THEREOF” (priority 2020, published 2023).
≈ marks a conversion by molar mass, not a printed value. Like-named read-outs stand apart in the source and are kept apart here. Square brackets hold non-standard residues; d marks the D form. Ends that are not written are not given here. Peptide text beside a SMILES is read from it. * marks the point of attachment. NH(β-GlcNAc) = CC(=O)N[C@@H]1[C@@H](O)[C@H](O)[C@@H](CO)O[C@H]1N*; dTrp(5-OMe) = COc1ccc2[nH]cc(C[C@@H](N)C(=O)O)c2c1

How the values were obtained:
[1] = system: VRE (E. faecalis) ATCC 51575; type: cell-based, Enterococcus faecalis
Method: (§1) The minimum growth inhibitory concentrations of the antibacterial peptides of the present invention weremeasured, and the results are shown in Table 3 below.
(§2) Specifically, the strains were grown in CAMHB until the midlog phase, and then diluted with PBS buffer to 1× 10^6 cfu/ml to prepare the bacterial solution, and the antibacterial peptide prepared in Example 1above was diluted with CAMHB to 80 µM, 40 µM, 20 µM, 10 µM, 5 µM, 2.5 µM, 1.25 µM and 0.63 µM, and then the bacterial solution was treated with the same volume.
(§3) The results are the average value of three independent experiments.

[2] = system: MRPA (P. aeruginosa) CCARM 2180; type: cell-based, Pseudomonas aeruginosa; settings: CCARM 2180, 18 h
Method: as §1, §2, §3

[3] = system: MRSA (S. aureus) KCCM 40510; type: cell-based, Staphylococcus aureus
Method: as §1, §2, §3

[4] = system: MRAB (A. baumannii) ATCC BAA 1605; type: cell-based, Acinetobacter baumannii
Method: as §1, §2, §3

[5] = CAMHB, 37° C., 18 hours, average of three experiments

Compound | MIC VRE (E. faecalis) ATCC 51575 ([1]; ATCC 51575, 18 h) [µM] | MIC MRPA (P. aeruginosa) CCARM 2180 [2] [µM] | MIC MRSA (S. aureus) KCCM 40510 ([3]; KCCM 40510, 18 h) [µM] | MIC MRAB (A. baumannii) ATCC BAA 1605 ([4]; ATCC BAA 1605, 18 h) [µM] | MIC VRE (E. faecalis) ATCC 51575 [1, 5] [µM] | MIC MRSA (S. aureus) KCCM 40510 [3, 5] [µM] | MIC MRAB (A. baumannii) ATCC BAA 1605 [4, 5] [µM]
CC[C@@H](C)[C@@H](NC(=O)[C@@H](Cc1c[nH]c2ccccc12)NC(=O)[C@@H](CCCNC(=N)N)NC(=O)[C@H](N)CCCNC(=N)N)C(=O)N[C@H](Cc1c[nH]c2ccccc12)C(=O)N[C@@H](C(=O)N[C@H](CC(C)C)C(=O)N[C@H](Cc1c[nH]c2ccccc12)C(=O)N[C@@H](CCCNC(=N)N)C(N)=O)C(C)C [KSH55, rrwiwvlwR] (H-[dR][dR][dW][dI][dW][dV][dL][dW]R-NH2; N-terminus assumed) | 0.63 (≈ 0.863 µg/mL) | 2.5 (≈ 3.42 µg/mL) | 0.63 (≈ 0.863 µg/mL) | 0.63 (≈ 0.863 µg/mL) | – | – | –
CC[C@H](C)[C@H](NC(=O)[C@H](Cc1c[nH]c2ccccc12)NC(=O)[C@@H](NC(=O)[C@H](CC(C)C)NC(=O)[C@@H](N)Cc1c[nH]c2ccccc12)C(C)C)C(=O)N[C@@H](Cc1c[nH]c2ccccc12)C(=O)N[C@@H](CCCNC(=N)N)C(=O)N[C@@H](CCCCN)C(=O)N[C@@H](CCCCN)C(=O)N[C@@H](CCCNC(=N)N)C(N)=O [LSH28] | 10 (≈ 14.7 µg/mL) | 40 (≈ 58.8 µg/mL) | 10 (≈ 14.7 µg/mL) | 5 (≈ 7.35 µg/mL) | – | – | –
WVLWVWLRKKR-NH2 [LSH1] | 2.5 | 20 | 2.5 | 2.5 | – | – | –
CC[C@@H](C)[C@@H](NC(=O)[C@@H](Cc1c[nH]c2ccccc12)NC(=O)[C@@H](CCCNC(=N)N)NC(=O)[C@H](N)CCCNC(=N)N)C(=O)N[C@H](Cc1c[nH]c2ccccc12)C(=O)N[C@@H](C(=O)N[C@H](CC(C)C)C(=O)N[C@H](Cc1c[nH]c2ccccc12)C(=O)N[C@H](CCCNC(=N)N)C(N)=O)C(C)C [KSH54, rrwiwvlwr] (H-[dR][dR][dW][dI][dW][dV][dL][dW][dR]-NH2; N-terminus assumed) | 0.63 (≈ 0.863 µg/mL) | 2.5 (≈ 3.42 µg/mL) | 0.63 (≈ 0.863 µg/mL) | 0.63 (≈ 0.863 µg/mL) | – | – | –
CC(C)[C@@H](NC(=O)[C@@H](Cc1c[nH]c2ccccc12)NC(=O)[C@@H](CCCNC(=N)N)NC(=O)[C@@H](CCCNC(=N)N)NC(=O)[C@H](N)CCCNC(=N)N)C(=O)N[C@@H](C(=O)N[C@@H](C(=O)N[C@@H](C(=O)N[C@@H](C(=O)N[C@H](Cc1c[nH]c2ccccc12)C(N)=O)C(C)C)C(C)C)C(C)C)C(C)C [KSH86, rrrwvvvvvw] (H-[dR][dR][dR][dW][dV][dV][dV][dV][dV][dW]-NH2; N-terminus assumed) | 1.25 (≈ 1.69 µg/mL) | 10 (≈ 13.5 µg/mL) | 1.25 (≈ 1.69 µg/mL) | 10 (≈ 13.5 µg/mL) | – | – | –
WLLWIALRKKR-NH2 [KSH1] | – | 40 | – | – | 5 | 2.5 | 5
CC[C@@H](C)[C@@H](NC(=O)[C@@H](Cc1c[nH]c2ccccc12)NC(=O)[C@@H](CCCCN)NC(=O)[C@@H](CCCNC(=N)N)NC(=O)[C@H](N)CCCNC(=N)N)C(=O)N[C@H](Cc1c[nH]c2ccccc12)C(=O)N[C@H](Cc1c[nH]c2ccccc12)C(=O)N[C@H](CC(C)C)C(=O)N[C@H](Cc1c[nH]c2ccccc12)C(=O)N[C@H](CCCCN)C(N)=O [KSH51, rrkwiwwlwk] (H-[dR][dR][dK][dW][dI][dW][dW][dL][dW][dK]-NH2; N-terminus assumed) | 1.25 (≈ 1.95 µg/mL) | 5 (≈ 7.78 µg/mL) | 1.25 (≈ 1.95 µg/mL) | 1.25 (≈ 1.95 µg/mL) | – | – | –
CC[C@@H](C)[C@@H](NC(=O)[C@@H](Cc1c[nH]c2ccccc12)NC(=O)[C@@H](C)NC(=O)[C@@H](C)NC(=O)[C@H](N)Cc1c[nH]c2ccccc12)C(=O)NCC(=O)N[C@H](CC(C)C)C(=O)N[C@H](CCCNC(=N)N)C(=O)N[C@H](CCCCN)C(=O)N[C@H](CCCCN)C(=O)N[C@H](CCCCN)C(N)=O [KSH75, waawiglrkkk] (H-[dW][dA][dA][dW][dI]G[dL][dR][dK][dK][dK]-NH2; N-terminus assumed) | >10 | >10 | >10 | 2.5 (≈ 3.39 µg/mL) | – | – | –
CC[C@@H](C)[C@@H](NC(=O)[C@@H](Cc1c[nH]c2ccccc12)NC(=O)[C@H](NC(=O)[C@@H](Cc1c[nH]c2ccccc12)NC(=O)[C@@H](CCCNC(=N)N)NC(=O)[C@@H](CCCNC(=N)N)NC(=O)[C@H](N)CCCNC(=N)N)[C@H](C)CC)C(=O)N[C@H](CC(C)C)C(=O)N[C@H](Cc1c[nH]c2ccccc12)C(N)=O [KSH59, rrrwiwilw] (H-[dR][dR][dR][dW][dI][dW][dI][dL][dW]-NH2; N-terminus assumed) | 0.63 (≈ 0.872 µg/mL) | 2.5 (≈ 3.46 µg/mL) | 0.63 (≈ 0.872 µg/mL) | 1.25 (≈ 1.73 µg/mL) | – | – | –
CC(C)[C@@H](NC(=O)[C@H](N)Cc1c[nH]c2ccccc12)C(=O)N[C@@H](C(=O)N[C@H](Cc1c[nH]c2ccccc12)C(=O)N[C@H](C)C(=O)N[C@H](C)C(=O)N[C@H](Cc1c[nH]c2ccccc12)C(=O)N[C@H](CCCNC(=N)N)C(=O)N[C@H](CCCNC(=N)N)C(=O)N[C@H](CCCNC(=N)N)C(N)=O)C(C)C [KSH72, wvvwaawrrr] (H-[dW][dV][dV][dW][dA][dA][dW][dR][dR][dR]-NH2; N-terminus assumed) | 5 (≈ 6.92 µg/mL) | 10 (≈ 13.8 µg/mL) | 2.5 (≈ 3.46 µg/mL) | 2.5 (≈ 3.46 µg/mL) | – | – | –
CC(=O)N[C@@H]1[C@@H](O)[C@H](O)[C@@H](CO)O[C@H]1NC(=O)C[C@H](NC(=O)[C@@H](CCCNC(=N)N)NC(=O)[C@@H](CCCNC(=N)N)NC(=O)[C@@H](CCCNC(=N)N)NC(=O)[C@@H](Cc1c[nH]c2ccccc12)NC(=O)[C@H](NC(=O)[C@H](NC(=O)[C@@H](Cc1c[nH]cn1)NC(=O)[C@H](NC(=O)[C@H](NC(=O)[C@H](N)Cc1c[nH]c2ccccc12)C(C)C)C(C)C)C(C)C)C(C)C)C(N)=O [KSH49, wvvhvvwrrrN] (H-[dW][dV][dV][dH][dV][dV][dW][dR][dR][dR]D(NH(β-GlcNAc))-NH2; N-terminus assumed) | 1.25 (≈ 2.14 µg/mL) | 10 (≈ 17.1 µg/mL) | 1.25 (≈ 2.14 µg/mL) | 2.5 (≈ 4.27 µg/mL) | – | – | –
CC[C@@H](C)[C@@H](NC(=O)[C@@H](Cc1c[nH]c2ccccc12)NC(=O)[C@@H](C)NC(=O)[C@@H](C)NC(=O)[C@H](N)Cc1c[nH]c2ccccc12)C(=O)NCC(=O)N[C@H](CC(C)C)C(=O)N[C@H](CCCNC(=N)N)C(=O)N[C@H](CCCNC(=N)N)C(=O)N[C@H](CCCNC(=N)N)C(N)=O [KSH69, waawiglrrr] (H-[dW][dA][dA][dW][dI]G[dL][dR][dR][dR]-NH2; N-terminus assumed) | >10 | >10 | >10 | 2.5 (≈ 3.21 µg/mL) | – | – | –
CC(C)[C@@H](NC(=O)[C@@H](Cc1c[nH]c2ccccc12)NC(=O)[C@@H](CCCNC(=N)N)NC(=O)[C@@H](CCCNC(=N)N)NC(=O)[C@H](N)CCCNC(=N)N)C(=O)N[C@H](Cc1c[nH]c2ccccc12)C(=O)N[C@H](Cc1c[nH]c2ccccc12)C(=O)N[C@@H](C(=O)N[C@@H](C(=O)N[C@H](Cc1c[nH]c2ccccc12)C(N)=O)C(C)C)C(C)C [KSH80, rrrwvwwvvw] (H-[dR][dR][dR][dW][dV][dW][dW][dV][dV][dW]-NH2; N-terminus assumed) | 1.25 (≈ 1.91 µg/mL) | 2.5 (≈ 3.82 µg/mL) | 1.25 (≈ 1.91 µg/mL) | 10 (≈ 15.3 µg/mL) | – | – | –
CC[C@@H](C)[C@@H](NC(=O)[C@@H](Cc1c[nH]c2ccccc12)NC(=O)[C@@H](CC(C)C)NC(=O)[C@@H](CC(C)C)NC(=O)[C@H](N)Cc1c[nH]c2ccc(OC)cc12)C(=O)NCC(=O)N[C@H](CC(C)C)C(=O)N[C@H](CCCNC(=N)N)C(=O)N[C@H](CCCCN)C(=O)N[C@H](CCCCN)C(=O)N[C@H](CCCNC(=N)N)C(N)=O [KSH15, wMllwiglrkkr] (H-[dTrp(5-OMe)][dL][dL][dW][dI]G[dL][dR][dK][dK][dR]-NH2; N-terminus assumed) | 2.5 (≈ 3.74 µg/mL) | 10 (≈ 15 µg/mL) | 1.25 (≈ 1.87 µg/mL) | 1.25 (≈ 1.87 µg/mL) | – | – | –
